Converted amounts (≈) assume the structure as drawn. The source made the active and inactive calls. The calls are words filed in the database; no cut-off is given here.
What was measured:
Acinetobacter baumannii [1] = experiment: Antimicrobial activity against multidrug-resistant Acinetobacter baumannii AYE in presence of efflux pump inhibitor CCCP by microdilution broth method; type: functional
Klebsiella pneumoniae [2] = experiment: Antimicrobial activity against multidrug-resistant Klebsiella pneumoniae 16 in presence of membrane permeabilizer PMBN by microdilution broth method; type: functional
Klebsiella pneumoniae [3] = experiment: Antimicrobial activity against multidrug-resistant Klebsiella pneumoniae NCTC 13438 in presence of efflux pump inhibitor CCCP by microdilution broth method; type: functional
Klebsiella pneumoniae [4] = experiment: Bactericidal activity against multidrug-resistant Klebsiella pneumoniae NCTC 13438 assessed as reduction in viable bacterial count at 4 times MIC measured up to 24 hrs by Miles-Misra dilution method based time-kill assay; type: functional, organism-based
Acinetobacter baumannii [5] = experiment: Antimicrobial activity against multidrug-resistant Acinetobacter baumannii UKA7 by microdilution broth method; type: functional
Klebsiella pneumoniae [6] = experiment: Antibacterial activity against multidrug-resistant Klebsiella pneumoniae NCTC 13368-7-R1 measured after 10 passages in presence of membrane permeabilizer PMBN by microdilution broth method; type: functional
Klebsiella pneumoniae [7] = experiment: Antimicrobial activity against multidrug-resistant Klebsiella pneumoniae NCTC 13368 by microdilution broth method; type: functional
Klebsiella pneumoniae [8] = experiment: Antimicrobial activity against multidrug-resistant Klebsiella pneumoniae NCTC 13368 in presence of membrane permeabilizer PMBN by microdilution broth method; type: functional
Acinetobacter baumannii [9] = experiment: Antimicrobial activity against multidrug-resistant Acinetobacter baumannii NCTC 13424 by microdilution broth method; type: functional
Pseudomonas aeruginosa [10] = experiment: Antimicrobial activity against multidrug-resistant Pseudomonas aeruginosa NCTC 13437 in presence of membrane permeabilizer PMBN by microdilution broth method; type: functional
Klebsiella pneumoniae [11] = experiment: Antibacterial activity against multidrug-resistant Klebsiella pneumoniae NCTC 13368-7-R2 measured after 10 passages in presence of efflux pump inhibitor PAbetaN by microdilution broth method; type: functional
Klebsiella pneumoniae [12] = experiment: Antibacterial activity against multidrug-resistant Klebsiella pneumoniae NCTC 13368-7-R2 measured after 10 passages in presence of efflux pump inhibitor CCCP by microdilution broth method; type: functional
Klebsiella pneumoniae [13] = experiment: Ratio of MIC for multidrug-resistant Klebsiella pneumoniae NCTC 13368-7-R1 measured after 10 passages to MIC for multidrug-resistant Klebsiella pneumoniae NCTC 13368-7-R1 measured after 10 passages in presence of membrane permeabilizer PMBN; type: functional
Acinetobacter baumannii [14] = experiment: Antimicrobial activity against multidrug-resistant Acinetobacter baumannii NCTC 13302 by microdilution broth method; type: functional
Klebsiella pneumoniae [15] = experiment: Ratio of MIC for multidrug-resistant Klebsiella pneumoniae NCTC 13368-7-R2 measured after 10 passages to MIC for multidrug-resistant Klebsiella pneumoniae NCTC 13368-7-R2 measured after 10 passages in presence of efflux pump inhibitor PAbetaN; type: functional
Acinetobacter baumannii [16] = experiment: Bactericidal activity against Acinetobacter baumannii NCTC 13424 assessed as reduction in viable bacterial count at 4 times MIC measured up to 24 hrs by Miles-Misra dilution method based time-kill assay; type: functional, organism-based
Klebsiella pneumoniae [17] = experiment: Bactericidal activity against multidrug-resistant Klebsiella pneumoniae NCTC 13368 assessed as reduction in viable bacterial count at 4 times MIC measured after 6 hrs by Miles-Misra dilution method based time-kill assay; type: functional, organism-based
Acinetobacter baumannii [18] = experiment: Antimicrobial activity against multidrug-resistant Acinetobacter baumannii UKA2 by microdilution broth method; type: functional
Acinetobacter baumannii [19] = experiment: Bactericidal activity against Acinetobacter baumannii AYE assessed as reduction in viable bacterial count at 4 times MIC measured up to 24 hrs by Miles-Misra dilution method based time-kill assay; type: functional, organism-based
Klebsiella pneumoniae [20] = experiment: Antibacterial activity against multidrug-resistant Klebsiella pneumoniae NCTC 13368-7-R1 measured after 10 passages by microdilution broth method; type: functional
Klebsiella pneumoniae [21] = experiment: Ratio of MIC for multidrug-resistant Klebsiella pneumoniae NCTC 13368-7-R2 measured after 10 passages to MIC for multidrug-resistant Klebsiella pneumoniae NCTC 13368-7-R2 measured after 10 passages in presence of membrane permeabilizer PMBN; type: functional
[22] = Solubility of the compound at 32 mg/L; type: physicochemical
Klebsiella pneumoniae [23] = experiment: Antibacterial activity against multidrug-resistant Klebsiella pneumoniae NCTC 13368-7-R1 measured after 10 passages in presence of efflux pump inhibitor CCCP by microdilution broth method; type: functional
Klebsiella pneumoniae [24] = experiment: Bactericidal activity against multidrug-resistant Klebsiella pneumoniae NCTC 13368 assessed as reduction in viable bacterial count at 4 times MIC measured after 24 hrs by Miles-Misra dilution method based time-kill assay; type: functional, organism-based
Pseudomonas aeruginosa [25] = experiment: Antimicrobial activity against multidrug-resistant Pseudomonas aeruginosa NCTC 13437 by microdilution broth method; type: functional
Klebsiella pneumoniae [26] = experiment: Antibacterial activity against multidrug-resistant Klebsiella pneumoniae NCTC 13368-7-R2 measured after 10 passages in presence of membrane permeabilizer PMBN by microdilution broth method; type: functional
Klebsiella pneumoniae [27] = experiment: Antibacterial activity against multidrug-resistant Klebsiella pneumoniae NCTC 13368-7-R2 measured after 10 passages by microdilution broth method; type: functional
Klebsiella pneumoniae [28] = experiment: Antibacterial activity against multidrug-resistant Klebsiella pneumoniae NCTC 13368-7-R1 measured after 10 passages in presence of efflux pump inhibitor PAbetaN by microdilution broth method; type: functional
Acinetobacter baumannii [29] = experiment: Antimicrobial activity against Acinetobacter baumannii ATCC 17978 in presence of efflux pump inhibitor CCCP by microdilution broth method; type: functional
Acinetobacter baumannii [30] = experiment: Bactericidal activity against Acinetobacter baumannii NCTC 13424 assessed as reduction in viable bacterial count at 4 times MIC measured after 24 hrs by Miles-Misra dilution method based time-kill assay; type: functional, organism-based
Klebsiella pneumoniae [31] = experiment: Bactericidal activity against multidrug-resistant Klebsiella pneumoniae 16 assessed as viable bacterial count at 4 times MIC measured after 4 to 24 hrs by Miles-Misra dilution method based time-kill assay; type: functional, organism-based
Escherichia coli = experiment: Antimicrobial activity against multidrug-resistant Escherichia coli NCTC 12923 assessed as mutation frequency at 4 times MIC measured after 48 hrs; type: functional
Acinetobacter baumannii [32] = experiment: Bactericidal activity against Acinetobacter baumannii AYE assessed as reduction in viable bacterial count at 4 times MIC measured after 24 hrs by Miles-Misra dilution method based time-kill assay; type: functional, organism-based
[33] = Ratio of MIC for Pseudomonas aeruginosa PAO1 to MIC for Pseudomonas aeruginosa harboring MexCD mutant; type: functional
Acinetobacter baumannii [34] = experiment: Ratio of MIC for multidrug-resistant Acinetobacter baumannii AYE to MIC for multidrug-resistant Acinetobacter baumannii AYE in presence of efflux pump inhibitor CCCP; type: functional
Acinetobacter baumannii [35] = experiment: Ratio of MIC for multidrug-resistant Acinetobacter baumannii AYE to MIC for multidrug-resistant Acinetobacter baumannii AYE in presence of efflux pump inhibitor PAbetaN; type: functional
Acinetobacter baumannii [36] = experiment: Antimicrobial activity against Acinetobacter baumannii ATCC 17978 assessed as mutation frequency at 4 times MIC measured after 48 hrs; type: functional
Staphylococcus aureus = experiment: Antibacterial activity against methicillin sensitive Staphylococcus aureus NCTC 6571 by microdilution broth method; type: functional
Acinetobacter baumannii [37] = experiment: Bactericidal activity against Acinetobacter baumannii ATCC 17978 assessed as reduction in viable bacterial count at 4 times MIC measured up to 24 hrs by Miles-Misra dilution method based time-kill assay; type: functional, organism-based
Klebsiella pneumoniae [38] = experiment: Bactericidal activity against multidrug-resistant Klebsiella pneumoniae NCTC 13438 assessed as viable bacterial count at 4 times MIC measured after 4 to 24 hrs by Miles-Misra dilution method based time-kill assay; type: functional, organism-based

## COc1cc2c(cc1OCCCC(=O)Nc1cc(C(=O)Nc3ccc4oc(C(=O)N5CCSCC5)cc4c3)n(C)c1)N=C[C@@H]1CCCN1C2=O
Acinetobacter baumannii [1]
  MIC: 4 µg/mL
Klebsiella pneumoniae [2]
  MIC: 0.5 µg/mL
Klebsiella pneumoniae [3]
  MIC: 4 µg/mL
Klebsiella pneumoniae [4]
  Activity: Active
Acinetobacter baumannii [5]
  MIC: 4 µg/mL (≈ 5.72 µM)
Klebsiella pneumoniae [6]
  MIC: 8 µg/mL
Klebsiella pneumoniae [7]
  MIC: 32 µg/mL (≈ 45.8 µM)
Klebsiella pneumoniae [8]
  MIC: 8 µg/mL
Acinetobacter baumannii [9]
  MIC: 1 to 2 µg/mL (≈ 1.43 to 2.86 µM)
Pseudomonas aeruginosa [10]
  MIC: 2 to 32 µg/mL
Klebsiella pneumoniae [11]
  MIC: 128 µg/mL
Klebsiella pneumoniae [12]
  MIC: > 128 µg/mL
Klebsiella pneumoniae [13]
  Ratio: 4
Acinetobacter baumannii [14]
  MIC: 4 µg/mL (≈ 5.72 µM)
Klebsiella pneumoniae [15]
  Ratio: 4
Acinetobacter baumannii [16]
  Activity: Active
Klebsiella pneumoniae [17]
  Activity: Active
Acinetobacter baumannii [18]
  MIC: 4 µg/mL (≈ 5.72 µM)
Acinetobacter baumannii [19]
  Activity: Active
Klebsiella pneumoniae [20]
  MIC: 128 µg/mL (≈ 183 µM)
Klebsiella pneumoniae [21]
  Ratio: 4
[22]
  solubility: Insoluble
Klebsiella pneumoniae [23]
  MIC: 128 µg/mL
Klebsiella pneumoniae [24]
  Activity: inactive
Pseudomonas aeruginosa [25]
  MIC: > 32 µg/mL
Klebsiella pneumoniae [26]
  MIC: 64 µg/mL
Klebsiella pneumoniae [27]
  MIC: > 128 µg/mL
Klebsiella pneumoniae [28]
  MIC: 32 µg/mL

## COc1cc2c(cc1OCCCC(=O)Nc1cc(C(=O)Nc3ccc4sc(C(=O)N(C)C)cc4c3)n(C)c1)N=C[C@@H]1CCCN1C2=O
Acinetobacter baumannii [29]
  MIC: 0.25 µg/mL
Acinetobacter baumannii [30]
  Activity: inactive
Klebsiella pneumoniae [31]
  Activity: Below limit of detection
Escherichia coli
  Activity: <4.3 ×10⁻⁸ No_unit
Acinetobacter baumannii [32]
  Activity: inactive
[33]
  Ratio: > 4
Acinetobacter baumannii [34]
  Ratio: 4
Acinetobacter baumannii [35]
  Ratio: 4
Acinetobacter baumannii [36]
  Activity: <1.5 ×10⁻⁸ No_unit
Staphylococcus aureus
  MIC: 0.03 µg/mL (≈ 0.0457 µM)
Acinetobacter baumannii [37]
  Activity: Active
Klebsiella pneumoniae [38]
  Activity: Below limit of detection
